The values that follow come from ChEMBL document CHEMBL2040791, “Synthesis of novel 6-(4-substituted piperazine-1-yl)-9-(β-D-ribofuranosyl)purine derivatives, which lead to senescence-induced cell death in liver cancer cells” (J Med Chem, 2012).

Calls of active or inactive are those of the source. The rule behind the calls is not given here.

The subject of experiment [1] is Huh-7. Kind of experiment: Induction of senescence in human HuH7 cells assessed as increase in senescence associated beta-galactosidase activity at 25 ng/mL after 3 to 6 days by X-GAL based staining method. Type of experiment: functional, cell-based.
The subject of experiment [2] is Huh-7. Put plainly: Antiproliferative activity in human HuH7 cells assessed as inhibition of BrdU incorporation at 25 ng/mL after 3 to 6 days. It is filed as functional, cell-based.
A further experiment deals with HCT-116. Kind of experiment: Cytotoxicity against human HCT116 cells after 72 hrs by SRB assay. It is filed as functional, cell-based.
The subject of experiment [3] is HepG2. Kind of experiment: Cytotoxicity against human HepG2 cells after 72 hrs by SRB assay. Type of experiment: functional, cell-based. A general note: The SRB assay estimates cell density from bound dye.
The next experiment concerns MCF7. Kind of experiment: Cytotoxicity against human MCF7 cells after 72 hrs by SRB assay. Type of experiment: functional, cell-based.
Experiment [4] relates to Huh-7. Put plainly: Cytotoxicity against human HuH7 cells after 72 hrs by SRB assay. It is filed as functional, cell-based.
Experiment [5] in a line: Cytotoxicity against human FOCUS cells after 72 hrs by SRB assay. Type of experiment: functional, cell-based.
The nature of experiment [6]: Cytotoxicity against human Mahlavu cells after 72 hrs by SRB assay. It is filed as functional, cell-based.
Experiment [7] deals with Huh-7. Put plainly: Inhibition of protein kinase in human HuH7 cells assessed as increase in ATP level at 5 uM after 72 hrs by Kinase-Glo assay. Type of experiment: cell-based. A general note: In Kinase-Glo more light means more ATP remaining.
The test system of experiment [8] is Huh-7. Put plainly: Induction of p15INK4b protein expression in human HuH7 cells at cytotoxic IC50 to IC100 concentration by Western blot analysis. It is filed as functional, cell-based. Particulars: TDE = time-dependent effect. Background: Immunoblotting shows a protein as a band on a membrane.
Experiment [9] relates to Huh-7. Put plainly: Induction of p15INK4b protein expression in human HuH7 cells after 3 to 6 days by Western blot analysis. It is filed as functional, cell-based.
Experiment [10] concerns HepG2. Put plainly: Induction of apoptosis in human HepG2 cells assessed as PARP cleavage into 89 kDa and 24 kDa fragments at 5.7 uM after 72 hrs by Western blot analysis. It is filed as functional, cell-based.
Experiment [11] concerns Huh-7. Kind of experiment: Induction of apoptosis in human HuH7 cells assessed as PARP cleavage into 89 kDa and 24 kDa fragments at 7.8 uM after 72 hrs by Western blot analysis. Type of experiment: functional, cell-based.
For experiment [12], the system named is HepG2. Kind of experiment: Growth inhibition of human HepG2 cells measured every 30 mins by real-time cell electronic sensing assay. Type of experiment: functional, cell-based.
Experiment [13] concerns Mahlavu. Kind of experiment: Growth inhibition of human Mahlavu cells at 5 to 30 uM by real-time cell electronic sensing assay. Type of experiment: functional. The following applies: TDE = time-dependent effect.
Experiment [14] relates to Mahlavu. Kind of experiment: Induction of necrosis in human Mahlavu cells assessed as PARP cleavage into 50 kDa fragment at 9.2 uM after 72 hrs by Western blot analysis. It is filed as functional, cell-based.
In experiment [15] the test system is Huh-7. Put plainly: Antiproliferative activity in human HuH7 cells assessed as inhibition of BrdU incorporation at cytotoxic IC50 to IC100 concentration after 3 to 6 days. It is filed as functional, cell-based.
Experiment [16] relates to FOCUS. Put plainly: Induction of necrosis in human FOCUS cells assessed as PARP cleavage into 50 kDa fragment at 5.2 uM after 72 hrs by Western blot analysis. Type of experiment: functional, cell-based.
The subject of experiment [17] is Huh-7. Kind of experiment: Growth inhibition of human HuH7 cells at 5 to 30 uM by real-time cell electronic sensing assay. Particulars: TDE = time-dependent effect. It is filed as functional, cell-based.
Experiment [18] deals with Huh-7. Kind of experiment: Growth inhibition of human HuH7 cells measured every 30 mins by real-time cell electronic sensing assay. Type of experiment: functional, cell-based.
Experiment [19] concerns Huh-7. Kind of experiment: Induction of senescence in human HuH7 cells assessed as increase in senescence associated beta-galactosidase activity at cytotoxic IC50 to IC100 concentration after 3 to 6 days by X-GAL based staining method. It is filed as functional, cell-based.
Experiment [20] has as its system FOCUS. Kind of experiment: Growth inhibition of human FOCUS cells measured every 30 mins by real-time cell electronic sensing assay. It is filed as functional, cell-based.
Experiment [21] has as its system Huh-7. Kind of experiment: Inhibition of protein kinase in human HuH7 cells assessed as increase in ATP level after 72 hrs by Kinase-Glo assay. Type of experiment: cell-based.
Experiment [22] concerns Huh-7. Put plainly: Induction of necrosis in human HuH7 cells assessed as PARP cleavage into 50 kDa fragment at 7.8 uM after 72 hrs by Western blot analysis. It is filed as functional, cell-based.
The test system of experiment [23] is FOCUS. Kind of experiment: Induction of apoptosis in human FOCUS cells assessed as PARP cleavage into 89 kDa and 24 kDa fragments at 5.2 uM after 72 hrs by Western blot analysis. It is filed as functional, cell-based.
Experiment [24] relates to Mahlavu. Kind of experiment: Growth inhibition of human Mahlavu cells measured every 30 mins by real-time cell electronic sensing assay. It is filed as functional.
The test system of experiment [25] is HepG2. Put plainly: Induction of necrosis in human HepG2 cells assessed as PARP cleavage into 50 kDa fragment into at 5.7 uM after 72 hrs by Western blot analysis. It is filed as functional, cell-based.
Experiment [26] deals with HepG2. Put plainly: Growth inhibition of human HepG2 cells at 5 to 30 uM by real-time cell electronic sensing assay. Type of experiment: functional, cell-based. The following applies: TDE = time-dependent effect.
The test system of experiment [27] is Huh-7. Put plainly: Induction of p15INK4b protein expression in human HuH7 cells assessed as inhibition of cyclinD1/[…]-mediated Rb phosphorylation at cytotoxic IC50 to IC100 concentration after 6 days by Western blot analysis. It is filed as functional, cell-based.
Experiment [28] has as its system FOCUS. Put plainly: Growth inhibition of human FOCUS cells at 5 to 30 uM by real-time cell electronic sensing assay. It is filed as functional, cell-based. The following applies: TDE = time-dependent effect.
In experiment [29] the test system is Mahlavu. Put plainly: Induction of apoptosis in human Mahlavu cells assessed as PARP cleavage into 89 kDa and 24 kDa fragments at 9.2 uM after 72 hrs by Western blot analysis. It is filed as functional, cell-based.
Where [30] appears, read: Homo sapiens, HCT-116, 72 h, read-out: IC50.
[31] abbreviates: hct-116, TDE = time-dependent effect.
The mark [32] stands for this setting: Homo sapiens, HepG2, 72 h, read-out: IC50.
The mark [33] stands for this setting: hepg2, TDE = time-dependent effect.
Setting [34] is: Homo sapiens, MCF7, 72 h, read-out: IC50.
[35] abbreviates: mcf7, TDE = time-dependent effect.
The mark [36] stands for this setting: Homo sapiens, Huh-7, 72 h, read-out: IC50.
The mark [37] stands for this setting: huh-7, TDE = time-dependent effect.

Take `COc1cccc2c1C(=O)c1c(O)c3c(c(O)c1C2=O)C[C@@](O)(C(=O)CO)C[C@@H]3O[C@H]1C[C@H](N)[C@H](O)[C@H](C)O1`: the result with Huh-7 [1] and with Huh-7 [2] was Active.

For the compound `OC[C@H]1O[C@@H](n2cnc3c(N4CCN(C(c5ccccc5)c5ccccc5)CC4)ncnc32)[C@H](O)[C@@H]1O`, the IC50 (in general, the concentration at which inhibition is half-maximal) in the experiment with HCT-116 (setting [30]) is 48.5 µM; in the experiment on HCT-116 (setting [31]) it was “tde”; with HepG2 [3] (setting [32]), 63.5 µM; in the experiment on HepG2 [3] (setting [33]) it was “tde”; with MCF7 (setting [34]), 40.1 µM; in the experiment on MCF7 (setting [35]) it was “tde”. Moreover, the IC50 is 44.4 µM in the experiment with Huh-7 [4] (setting [36]), “tde” with Huh-7 [4] (setting [37]), above 100 µM in experiment [5] and 92.7 µM in [6].

As for `OC[C@H]1O[C@@H](n2cnc3c(N4CCN(c5ccccc5)CC4)ncnc32)[C@H](O)[C@@H]1O`, the IC50 was above 100 µM in the experiment with HCT-116 (setting [30]); “tde” in the experiment on HCT-116 (setting [31]); above 100 µM in the experiment with HepG2 [3] (setting [32]); “tde” in the experiment on HepG2 [3] (setting [33]); above 100 µM in the experiment on MCF7 (setting [34]); “tde” in the experiment with MCF7 (setting [35]). Further, the IC50 is above 100 µM with Huh-7 [4] (setting [36]), “tde” with Huh-7 [4] (setting [37]), above 100 µM in experiment [5] and above 100 µM in experiment [6].

As to `OC[C@H]1O[C@@H](n2cnc3c(N4CCN(c5ccc(Cl)c(Cl)c5)CC4)ncnc32)[C@H](O)[C@@H]1O`, the IC50 in the experiment with HCT-116 (setting [30]) is 8.4 µM; with HCT-116 (setting [31]), “tde”; in the experiment on HepG2 [3] (setting [32]), 6.1 µM; with HepG2 [3] (setting [33]), “tde”; in the experiment with MCF7 (setting [34]) it was 9.7 µM; in the experiment on MCF7 (setting [35]) it was “tde”. The IC50 in the experiment with Huh-7 [4] (setting [36]) is 7.1 µM; with Huh-7 [4] (setting [37]), “tde”; in experiment [5], 5.5 µM; in experiment [6] it was 7 µM.

`CC[C@@]1(O)C(=O)OCc2c1cc1n(c2=O)Cc2cc3ccccc3nc2-1` [CAMPTOTHECIN]: the IC50 (in the experiment with HCT-116 (setting [30]); with HepG2 [3] (setting [32]); with MCF7 (setting [34]); in the experiment on Huh-7 [4] (setting [36]); in [5]; in [6]) was below 0.1 µM in each case.

With `CSC[C@H]1O[C@@H](n2cnc3c(N)ncnc32)[C@H](O)[C@@H]1O`, the inhibition result in the experiment with Huh-7 [7] is “Active”.

Consider `OC[C@H]1O[C@@H](n2cnc3c(N4CCN(c5ccc(F)cc5)CC4)ncnc32)[C@H](O)[C@@H]1O`, for which the IC50 was above 100 µM in the experiment on HCT-116 (setting [30]); “tde” in the experiment on HCT-116 (setting [31]); above 100 µM in the experiment on HepG2 [3] (setting [32]); “tde” with HepG2 [3] (setting [33]); above 100 µM in the experiment on MCF7 (setting [34]); “tde” in the experiment on MCF7 (setting [35]). In addition, the IC50 in the experiment on Huh-7 [4] (setting [36]) is 49.7 µM; in the experiment with Huh-7 [4] (setting [37]), “tde”; in experiment [5], above 100 µM; in experiment [6] it was above 100 µM.

Turning to `OC[C@H]1O[C@@H](n2cnc3c(N4CCN(c5ccc(C(F)(F)F)cc5)CC4)ncnc32)[C@H](O)[C@@H]1O`, the Activity result in the experiment on Huh-7 [8] is “tde”; in the experiment on Huh-7 [9], “Dose-dependent effect”. Moreover, the IC50 in the experiment with HCT-116 (setting [30]) is 6.7 µM; in the experiment on HCT-116 (setting [31]) it was “tde”; in the experiment with HepG2 [3] (setting [32]), 5.7 µM; in the experiment with HepG2 [3] (setting [33]) it was “tde”; in the experiment with MCF7 (setting [34]), 7.5 µM; in the experiment with MCF7 (setting [35]), “tde”. Further, the IC50 in the experiment on Huh-7 [4] (setting [36]) is 7.8 µM; in the experiment on Huh-7 [4] (setting [37]), “tde”; in [5], 5.2 µM; in experiment [6], 9.2 µM. For the same compound, the result with HepG2 [10], with Huh-7 [11], in the experiment on Mahlavu [14], in the experiment on FOCUS [16], with Huh-7 [22] and in the experiment on FOCUS [23] was inactive. Also, the outcome with HepG2 [25] and with Mahlavu [29] was inactive. Besides, the “growth inhibition (GI)” value with HepG2 [12] is “Dose-dependent effect”; in the experiment with Mahlavu [13], “tde”; with Huh-7 [17], “tde”; in the experiment on Huh-7 [18], “Dose-dependent effect”; in the experiment on FOCUS [20], “Dose-dependent effect”; with Mahlavu [24], “Dose-dependent effect”. The “growth inhibition (GI)” value in the experiment on HepG2 [26] and in the experiment with FOCUS [28] was “tde” in each case. For the same compound, the result in the experiment on Huh-7 [15], in the experiment with Huh-7 [19] and in the experiment with Huh-7 [27] was Active. In the experiment with Huh-7 [21], the inhibition entry was “Dose-dependent effect”.

For `O=c1[nH]cc(F)c(=O)[nH]1` [FLUOROURACIL], the IC50 in the experiment with HCT-116 (setting [30]) turned out to be 6 µM; in the experiment on HepG2 [3] (setting [32]) it was 5 µM; in the experiment on MCF7 (setting [34]), 3.5 µM; in the experiment on Huh-7 [4] (setting [36]), 30.7 µM; in experiment [5], 7.6 µM; in [6], 10 µM.
